Target: T1, Dioclea violacea lectin (DVL) (Macropsychanthus violaceus, UniProt I1SB09)
T1 sequence (I1SB09 1-237): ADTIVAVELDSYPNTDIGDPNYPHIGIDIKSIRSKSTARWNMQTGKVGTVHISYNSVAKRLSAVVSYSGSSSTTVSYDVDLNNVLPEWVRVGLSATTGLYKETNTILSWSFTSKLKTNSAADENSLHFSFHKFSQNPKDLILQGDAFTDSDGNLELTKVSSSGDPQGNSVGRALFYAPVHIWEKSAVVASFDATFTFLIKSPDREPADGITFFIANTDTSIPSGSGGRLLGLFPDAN
Test: fluorescence microscopy of FITC-lectin binding to fixed Lutzomyia migonei midgut, lectin blocked with sugar
Details: 0.1 M D-mannose, 37 °C, 30 min preincubation; carbohydrate recognition domain; FITC-labelled lectin 100 µg/mL

SMILES: OC[C@H]1OC(O)[C@@H](O)[C@@H](O)[C@@H]1O (stereo partly drawn) [D-mannose]
- fluorescence microscopy of FITC-lectin binding to fixed Lutzomyia migonei midgut: when the midguts were treated with blocked DVL, a remarkable decrease in the fluorescence pattern
